pIC50: −log10 of the molar value.

The text below walks through data of US7238679B2, “Heterocycles and uses thereof” (Ariad Pharmaceuticals, Inc., priority 2002, dated 2007).

In one data set the test system is MDA-468 tumor cell line. Nature of the data set: Conventional cell-based assay against the MDA-468 tumor cell line. An excerpt: Cell-based methods for measuring antiproliferative activity are well known and can be used for comparative characterization of compounds of this invention. In general, cell proliferation and cell viability assays are designed to provide a detectable signal when cells are metabolically active. Compounds may be tested for antiproliferative activity by measuring any observed decrease in metabolic activity of the cells after exposure of the cells to compound. Commonly used methods include, for example, measurement of membrane integrity (as a measure of cell viability)(e.g. using trypan blue exclusion) or measurement of DNA synthesis (e.g. by measuring incorporation of BrdU or 3H-thymidine).
Some methods for assaying cell proliferation use a reagent that is converted into a detectable compound during cell proliferation. Particularly preferred compounds are tetrazolium salts and include without limitation MTT (3-(4, 5-dimethylthiazol-2-yl)-2,5-diphenyltetrazolium bromide; Sigma-Aldrich, St. Louis, Mo.), MTS (3-(4,5-dimethylthiazol-2-yl)-5-(3-carboxymethoxyphenyl)-2-(4-sulfophenyl)-2H-tetrazolium), XTT (2,3-bis(2-Methoxy4-nitro-5-sulfophenyl)-2H-tetrazolium-5-carboxanilide), INT, NBT, and NTV (Bernas et al. Biochim Biophys Acta 1451(1):73–81, 1999). Preferred assays utilizing tetrazolium salts detect cell proliferation by detecting the product of the enzymatic conversion of the tetrazolium salts into blue formazan derivatives, which are readily detected by spectroscopic methods (Mosman. J. Immunol. Methods. 65:55–63, 1983).
Generally, preferred methods for assaying cell proliferation involve incubating cells in a desired growth medium with and without the compounds to be tested. […] Cells are processed, and the optical density of the cells is determined to measure the amount of formazan derivatives. […]

`COc1cc2ncnc(Nc3ccc(F)c(Cl)c3)c2cc1P(C)(C)=O` [Example 3, 4-[(3-Chloro-4-fluorophenyl)amino]-7-methoxy-6-(dimethylphosphinoyl)-quinazoline] yielded a melting point of 257 to 259 °C. Also, the pIC50 in the data set with MDA-468 tumor cell line was greater than 4.30.

In turn, `CCOP(=O)(OCC)c1cc2c(Nc3ccc(F)c(Cl)c3)ncnc2cc1OC` [Example 5, 4-[(3-Chloro-4-fluorophenyl)amino]-7-methoxy-6-(diethylphosphonate)-quinazoline] gave a melting point of 215 to 217 °C. For the same molecule, the pIC50 in the data set on MDA-468 tumor cell line is greater than 4.30.

With `CCOP(C)(=O)c1cc2c(Nc3ccc(F)c(Cl)c3)ncnc2cc1OC` (stereo not drawn) [Example 7, 4-[(3-Chloro-4-fluorophenyl)amino]-7-methoxy-6-(ethyl-methylphosphinate)-quinazoline], the melting point lay in the range of 199 to 200 °C. Also, in the data set with MDA-468 tumor cell line, the pIC50 was greater than 4.30.

The melting point is the temperature of the solid-liquid transition. The term pIC50 denotes the IC50 on a negative log10 scale, so that one unit is a factor of ten.
